According to patent publication US5574070A, “Substituted guanidines having high binding to the sigma receptor and the use thereof” (priority 1993, dated 1996):
“Also recorded” adds a separate entry of the source. Structures can show the parent of a compound that is named as a salt. Where two headings read alike, the source gives them in different places.

System: sigma receptor
Test: [3H]DTG displacement radioligand binding assay, guinea pig brain membranes
[1] = Example 25, guinea pig brain membrane homogenates, read-out: IC50 binding values
[2] = list of especially preferred compounds, read-out: IC50 (high binding to the sigma receptor)
[3] = read-out: IC50 vs [3H]DTG, Table I, guinea pig brain membranes

Row | Compound | in vitro [3H]DTG displacement activity | IC50 [1] [nM] | IC50 [2] [nM] | other results
1 | 1,1-dimethyl-4-guanidine [reference compound] | – | – | – | displacement of [3H]DTG: no significant displacement
2 | N=C(NC1CC2CCC1C2)NC1CC2CCC1C2 (racemic) [N,N'-di-((±)-endo-2-norbornyl)guanidine] | found to possess the aforesaid in vitro [^3 H]DTG displacement activity | 16 | 16 | –
3 | Cc1ccccc1NC(=N)N[C@@H]1C[C@@H]2CC[C@H]1C2 (relative stereo) [N-((±)-endo-2-norbornyl)-N'-(2-methylphenyl)guanidine] | – | – | 6 | –
4 | CC1(C)[C@H]2CC[C@]1(C)[C@@H](NC(=N)Nc1ccccc1I)C2 (relative stereo) [N-(exo-2-isobornyl)-N'-(o-iodophenyl)guanidine] | found to possess the aforesaid in vitro [^3 H]DTG displacement activity | 18 | 18 | –
5 | Cc1ccccc1NC(=N)N[C@H]1C[C@@H]2CC[C@@]1(C)C2(C)C (relative stereo) [N-(exo-2-isobornyl)-N'-(o-tolyl)guanidine] | found to possess the aforesaid in vitro [^3 H]DTG displacement activity | 25 | 25 | –
6 | N=C(Nc1ccccc1I)N[C@H]1C[C@@H]2CC[C@H]1C2 (relative stereo) [N-(exo-2-norbornyl)-N'-(2-iodophenyl)guanidine] | – | – | 4 | –
7 | C=CCN1CCC2(C)c3cc(O)ccc3CC1C2C (single isomer, unassigned; (+)) [(+)SKF 10,047, N-allyl-normetazocine, reference compound] | – | – | – | IC50 (read-out: IC50 vs. [3H]DTG): 625 ± 88 nM
8 | CN(C)CCC=C1c2ccccc2CCc2ccccc21 [Amitriptyline, reference compound] | – | – | – | IC50 (read-out: IC50 vs. [3H]DTG, Table III, ± SEM, average from 2-4 separate experiments in triplicate): 300 ± 7 nM
9 | N=C1Nc2ccccc2-c2ccccc2N1 [Bridge-DPG, 2-imino-1,3H-dibenzo[d,f]-[1,3]-diazepine] | – | > 10000 | – | –
10 | CN(C)CCCN1c2ccccc2Sc2ccc(Cl)cc21 [Chlorpromazine, reference compound] | – | – | – | IC50 (read-out: IC50 binding values): 1480 ± 265 nM; IC50 (read-out: IC50 vs. [3H]DTG): 1480 nM
11 | Clc1cccc(Cl)c1N=C1NCCN1 [Clonidine, reference compound] | – | – | – | IC50 (read-out: IC50 vs. [3H]DTG): > 10000 nM
12 | CNC(=N)NC [DMG, N,N'-di(methyl)guanidine, reference compound] | – | > 10000 | – | –
13 | Cc1cccc(C)c1NC(=N)Nc1c(C)cccc1C [DXG, N,N'-di-(2,6-dimethylphenyl)guanidine] | found to possess the aforesaid in vitro [^3 H]DTG displacement activity | 90 ± 18 | 90 | IC50 [3]: 90 ± 18 nM
14 | Cc1cc(Br)ccc1NC(=N)Nc1ccc(Br)cc1C [Example 4-Br--DTG, N,N'-Di-(4-bromo-2-methylphenyl)guanidine] | found to possess the aforesaid in vitro [^3 H]DTG displacement activity | 37 | 37 | IC50 [3]: 37 ± 3 nM
15 | O=C(CCCN1CCC(O)(c2ccc(Cl)cc2)CC1)c1ccc(F)cc1 [Haloperidol, reference compound] | – | – | – | affinity for / displacement at the [3H]DTG binding site: all specific binding is displaceable by haloperidol; also recorded: highest displacement potency of all drugs tested
16 | CN(C)CCCN1c2ccccc2CCc2ccccc21 [Imipramine, reference compound] | – | – | – | IC50 (read-out: IC50 vs. [3H]DTG): 520 ± 14 nM
17 | CCc1cccc(N2CCN(c3cccc(CC)c3)C2=N)c1 [N,N'-Bis (3-ethylphenyl)-2-imino-imidazolidine] | – | – | 70 | –
18 | N=C(NC1CCCCC1)NC1CCCCC1 [N,N'-di(cyclohexyl)guanidine] | found to possess the aforesaid in vitro [^3 H]DTG displacement activity | 71 | 71 | IC50 [3]: 71 ± 7 nM
19 | Cc1cc(I)ccc1NC(=N)Nc1ccc(I)cc1C [N,N'-di-(2-methyl-4-iodophenyl)guanidine] | found to possess the aforesaid in vitro [^3 H]DTG displacement activity | – | – | –
20 | N=C(NC1CC2CCC1C2)NC1CC2CCC1C2 (stereo not drawn) [N,N'-di-(exo-2-norbornyl)guanidine] | found to possess the aforesaid in vitro [^3 H]DTG displacement activity | 22 | 22 | –
21 | CCCCNC(=N)NCCCC [N,N'-di-n-butyl-guanidine] | found to possess the aforesaid in vitro [^3 H]DTG displacement activity | – | – | IC50 [3]: 750 ± 33 nM
22 | N=C(NCc1ccccc1)NCc1ccccc1 [N,N'-dibenzylguanidine] | found to possess the aforesaid in vitro [^3 H]DTG displacement activity | 90 | 90 | –
23 | N=C(Nc1ccccc1[N+](=O)[O-])NC12CC3CC(CC(C3)C1)C2 [N-(1-adamantyl)-N'-(o-nitrophenyl)guanidine] | found to possess the aforesaid in vitro [^3 H]DTG displacement activity | 30 | 30 | –
24 | Cc1ccccc1NC(=N)Nc1c(C)cccc1C [N-(2,6-dimethylphenyl)-N'-(2-methylphenyl)-guanidine] | found to possess the aforesaid in vitro [^3 H]DTG displacement activity | 70 | 70 | IC50 [3]: 70 ± 3 nM

Row | Compound | in vitro [3H]DTG displacement activity | IC50 [1] [nM] | IC50 [2] [nM] | other results
25 | Cc1ccccc1NC(=N)Nc1ccc(N=[N+]=[N-])cc1C [N-(2-Methyl-4-azido-phenyl)-N'-(2-methylphenyl)guanidine] | found to possess the aforesaid in vitro [^3 H]DTG displacement activity | – | 20 | IC50 [3]: 20 ± 1 nM
26 | Cc1ccccc1NC(=N)Nc1ccc([N+](=O)[O-])cc1C [N-(2-Methyl-4-nitrophenyl)-N'-(2-methyl-phenyl)guanidine] | found to possess the aforesaid in vitro [^3 H]DTG displacement activity | 37 | 37 | IC50 [3]: 37 ± 5 nM
27 | Cc1ccccc1NC(=N)Nc1ccccc1I [N-(2-iodophenyl)-N'-(2-methylphenyl)-guanidine] | found to possess the aforesaid in vitro [^3 H]DTG displacement activity | 21 | 21 | IC50 [3]: 21 ± 1 nM
28 | CC12CC3CC(C)(C1)CC(NC(=N)Nc1ccccc1I)(C3)C2 [N-(3,5-dimethyl-1-adamantanyl)-N'-(o-iodophenyl)guanidine] | found to possess the aforesaid in vitro [^3 H]DTG displacement activity | 16 | 16 | –
29 | Cc1ccccc1NC(=N)NC12CC3CC(C)(CC(C)(C3)C1)C2 [N-(3,5-dimethyladamantan-1-yl)-N'-(o-tolyl)guanidine] | found to possess the aforesaid in vitro [^3 H]DTG displacement activity | 15 | 15 | –
30 | Cc1ccccc1N(C)C(=N)NC12CC3CC(CC(C3)C1)C2 [N-(Adamantan-1-yl)-N'-(2-methylphenyl)-N'-methyl-guanidine] | – | – | 22.6 | IC50 (read-out: IC50 vs [3H]DTG, Table II, ± s.e.m. (n)): 22.6 nM
31 | CC(C)c1ccccc1NC(=N)NC12CC3CC(CC(C3)C1)C2 [N-(adamant-1-yl)-N'-(o-isopropylphenyl)guanidine] | found to possess the aforesaid in vitro [^3 H]DTG displacement activity | 24 | 24 | –
32 | Cc1cc(Br)ccc1NC(=N)NC12CC3CC(CC(C3)C1)C2 [N-(adamant-1-yl)-N'-(p-bromo-o-tolyl)guanidine] | found to possess the aforesaid in vitro [^3 H]DTG displacement activity | – | 2.7 | –
33 | N=C(Nc1ccccc1I)NC1C2CC3CC(C2)CC1C3 (centres unmarked) [N-(adamant-2-yl)-N'-(2-iodophenyl)guanidine] | – | 5.2 | 3.5 | –
34 | Cc1ccccc1NC(=N)NC1C2CC3CC(C2)CC1C3 (centres unmarked) [N-(adamant-2-yl)-N'-(2-methylphenyl)guanidine] | – | – | 7 | –
35 | N=C(Nc1ccc(I)cc1)NC1C2CC3CC(C2)CC1C3 (centres unmarked) [N-(adamant-2-yl)-N'-(p-iodophenyl)guanidine] | found to possess the aforesaid in vitro [^3 H]DTG displacement activity | 2.7 | – | –
36 | CC(C)(C)NC(=N)Nc1ccccc1I [N-(o-iodophenyl)-N'-(t-butyl)guanidine] | found to possess the aforesaid in vitro [^3 H]DTG displacement activity | 20 | 20 | –
37 | Cc1ccccc1NC(=N)Nc1ccc(N)cc1C [NH2 --DTG, N-(2-Methyl-4-aminophenyl)-N'-(2-methylphenyl)-guanidine hydrochloride] | – | 280 ± 20 | – | IC50 [3]: 280 ± 14 nM
38 | CNCCC=C1c2ccccc2CCc2ccccc21 [Nortriptyline, reference compound] | – | – | – | IC50 (read-out: IC50 vs. [3H]DTG): 2000 nM
39 | CN(C)CCCN1c2ccccc2Sc2ccc(C(F)(F)F)cc21 [Trifluopromazine, reference compound] | – | – | – | IC50 (read-out: IC50 vs. [3H]DTG): 605 ± 67 nM
40 | CN1CCc2cccc3c2[C@H]1Cc1ccc(O)c(O)c1-3 [apomorphine, reference compound] | – | – | – | displacement of [3H]DTG (10 uM): no significant displacement
41 | N=C(N)NCCC(=O)O [beta-guanidino propionic acid, reference compound] | – | – | – | displacement of [3H]DTG (10 uM): no significant displacement
42 | CN1CCc2cc3c(cc2[C@H]1[C@@H]1OC(=O)c2c1ccc1c2OCO1)OCO3 [bicuculline, reference compound] | – | – | – | displacement of [3H]DTG (10 uM): no significant displacement
43 | CN/C(=N/CCSCc1nc[nH]c1C)NC#N [cimetidine, reference compound] | – | – | – | displacement of [3H]DTG: no significant displacement
44 | CN(CC(=O)O)C(=N)N [creatine, reference compound] | – | – | – | displacement of [3H]DTG (10 uM): no significant displacement
45 | CN1CC(=O)NC1=N [creatinine, reference compound] | – | – | – | displacement of [3H]DTG (10 uM): no significant displacement
46 | N=C(N)NCCCC(=O)O [gamma-guanidino butyric acid, reference compound] | – | – | – | displacement of [3H]DTG (10 uM): no significant displacement
47 | N=C(N)NCC(=O)O [guanidino acetic acid, reference compound] | – | – | – | displacement of [3H]DTG (10 uM): no significant displacement
48 | C[N+](C)(C)CCCCCC[N+](C)(C)C [hexamethonium, reference compound] | – | – | – | displacement of [3H]DTG (10 uM): no significant displacement
